Consider two compounds from patent US7476689B2, “Therapeutic compositions for intranasal administration which include KETOROLAC” (Recordati Ireland Limited, priority 1991, dated 2009).

Structures are written as SMILES.

In one data set the test system is patients. The note with it: cited from earlier work.
Data set [1] can be described thus: nasal absorption: KTM plasma levels by HPLC after intranasal or intravenous administration. The format is in vivo, White New Zealand rabbits. The note with it: rabbit. The method, then: Each rabbit received a active preparation in one nostril and its placebo in the other. Each animal received 2 mg/kg of KETOROLAC® tromethamine (KTM), twice a day for seven days and once on the eighth day. The control rabbits were treated, after seven days of nasal administration of physiologic solution, with 2 mg/kg of KTM by intravenous route once. After the last treatment plasma samples were collected at several times and KTM plasma levels were investigated by HPLC. After the last blood sample was drawn all the animals were killed by excision of femoral arteries, after having been completely anaesthetized. Nasal turbinates, larynx and pharynx were removed and subjected to histological examinations.

Regarding `O=C(c1ccccc1)c1ccc2n1CCC2C(=O)O` (stereo not drawn) [KETOROLAC®, 5-benzoyl-2,3-dihydro-1H-pyrrolizine-1-carboxylic acid], in the data set on patients (intramuscular route, 20 doses of 30 mg each over five days), the “patients with one or more undesirable side effects” value is “about 10%”. Moreover, the “patients with gastrointestinal disorders” value in the data set with patients (oral administration) is “up to 50%”. Also, the “incidence of side effects” value in the data set on patients (oral route for a few days) was “around 32%”.
For `O=C(c1ccccc1)c1ccc2n1CCC2C(=O)O` (stereo not drawn) [KTM, KETOROLAC® tromethamine], the concentration at 0.083 h in data set [1] (New Zealand White, plasma, intravenous 2 mg/kg once, 0.083 hours) was found to be 14500 ng/mL. The compound also registered a concentration at 0.25 h in data set [1] (New Zealand White, plasma, intravenous 2 mg/kg once, 0.25 hours) of 7680 ng/mL. The same compound registered a concentration at 0.5 h in data set [1] (New Zealand White, plasma, intravenous 2 mg/kg once, 0.5 hours) of 3880 ng/mL. Also, the concentration at 1 h in data set [1] (New Zealand White, plasma, intravenous 2 mg/kg once, 1 hour) stood at 1700 ng/mL. The same compound registered a concentration at 2 h in data set [1] (New Zealand White, plasma, intravenous 2 mg/kg once, 2 hours) of 403 ng/mL. For the same compound, the concentration at 3 h in data set [1] (New Zealand White, plasma, intravenous 2 mg/kg once, 3 hours) is 120 ng/mL. The concentration at 5 h in data set [1] (New Zealand White, plasma, intravenous 2 mg/kg once, 5 hours) was 20 ng/mL. For the same compound, the AUC(0-t) in data set [1] (New Zealand White, plasma, intravenous 2 mg/kg, mean of three animals, read-out: AUC0-5, average) was 7360 ng·h/mL. Besides, the “Plasma Concentration of KTM, Mean” value in data set [1] (intravenous 2 mg/kg once, sampling time Basal) was 0 ng/mL.
